Reference: paper PMC3729231 (Bioorganic & medicinal chemistry letters, 2012)

Legend:
[1] = aqueous acetonitrile; data not shown
[2] = test system: 29 other GPCRs; assay: PDSP GPCR binding assay panel: other GPCRs; conditions: listed as ML221
[3] = biological target: T1, APJ (Homo sapiens, UniProt P35414); assay: cell-based
T1 sequence (P35414 1-380): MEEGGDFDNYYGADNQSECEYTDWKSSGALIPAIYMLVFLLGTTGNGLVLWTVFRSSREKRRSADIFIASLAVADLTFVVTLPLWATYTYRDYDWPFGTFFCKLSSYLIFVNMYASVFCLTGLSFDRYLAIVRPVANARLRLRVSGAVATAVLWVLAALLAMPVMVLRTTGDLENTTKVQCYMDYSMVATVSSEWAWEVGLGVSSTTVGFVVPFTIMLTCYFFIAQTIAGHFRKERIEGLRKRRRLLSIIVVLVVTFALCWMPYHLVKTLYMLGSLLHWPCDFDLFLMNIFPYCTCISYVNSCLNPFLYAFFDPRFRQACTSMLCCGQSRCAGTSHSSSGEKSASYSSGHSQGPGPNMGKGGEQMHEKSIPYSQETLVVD

SMILES: Cc1ccnc(SCc2cc(=O)c(OC(=O)c3ccc(Cl)c([N+](=O)[O-])c3)co2)n1 [Entry 29]
- hydrolytic stability of the ester bond (in words) [1]: readily hydrolyzed

SMILES: O=C(Oc1coc(CSc2ncccn2)cc1=O)c1ccc([N+](=O)[O-])cc1 [Entry 6, 4-oxo-6-((pyrimidin-2-ylthio)methyl)-4H-pyran-3-yl 4-nitrobenzoate]
- binding activity against other GPCRs (in words) [2]: no significant binding activity

SMILES: Cc1ccnc(SCc2cc(=O)c(NC(=O)c3ccc([N+](=O)[O-])cc3)co2)n1 [Entry 67]
- IC50 [3]: 12.8 ± 0.35 µM
